pIC50: −log10 of the molar value. Residues, ends and D or L forms follow the SMILES beside them. *: point of attachment. Cbz = O=C(OCc1ccccc1)*
Key:
[1] = Half life in human; format: ADME
Proteasome [2] = assay: Inhibition of proteasome in human K562 cells assessed as half life of etoposide-induced Topoisomerase 2alpha-DNA complexes at 50 uM incubated for 2 hrs followed by etoposide washout and measured up to 120 mins by TARDIS assay (reference value: 0.5 hrs); format: subcellular
Proteasome [3] = assay: Inhibition of proteasome in human K562 cells assessed as half life of mitoxantrone-induced Topoisomerase 2alpha-DNA complexes by measuring half life of complex at 50 uM incubated for 2 hrs followed by mitoxantrone washout and measured up to […] by TARDIS assay (reference value: 10 hrs); format: subcellular
P388 = assay: Antitumor activity against mouse P388 cells implanted in ip dosed B6D2F1 mouse assessed as T/C value administered for 4 days; format: functional
DLD-1 = assay: Antiproliferative activity against human DLD1 cells after 72 hrs by sulforhodamine B assay; format: functional, cell-based; conditions: DLD-1, 72 h
U-87 MG = assay: Antiproliferative activity against human U87 cells after 72 hrs by sulforhodamine B assay; format: functional, cell-based, U-87MG ATCC
[4] = Cytotoxicity against […] cells after 4 hrs by MTT assay; format: functional, cell-based
[5] = Selectivity ratio of IC50 for […] cells to IC50 for human RPMI8226/S cells; format: functional
[6] = Cytotoxicity against human RPMI8226/S cells after 4 hrs by MTT assay; format: functional, cell-based
Bel-7402 = assay: Antiproliferative activity against human Bel7402 cells after 72 hrs by sulforhodamine B assay; format: functional, cell-based; conditions: Bel-7402, 72 h
HeLa = assay: Antiproliferative activity against human HeLa cells after 72 hrs by sulforhodamine B assay; format: functional, cell-based

SMILES: CC[C@@]1(O)C(=O)OCc2c1cc1n(c2=O)Cc2cc3ccccc3nc2-1 [CAMPTOTHECIN]
- half-life [1]: 1.18 to 1.5 h

SMILES: CC(C)C[C@@H](C=O)NC(=O)[C@H](CC(C)C)NC(=O)[C@H](CC(C)C)NC(=O)OCc1ccccc1 (Cbz-Leu-Leu-Leu-aldehyde)
- T1/2 (Proteasome [2]): > 2 h
- T1/2 (Proteasome [3]): > 24 h

SMILES: COc1ccc2c(ccc3c2c2c(NCCCN(C)C)ncc(C)c2n3C)c1
- T/C (P388): 150%

SMILES: Cc1cnc(NCCCN(C)C)c2c1[nH]c1ccc3ccccc3c12
- T/C (P388): 150%

SMILES: CCCCC(C#CC(=O)OC)O/C=C/C(=O)OC (stereo not given)
- pIC50 (DLD-1): 6.07
- pIC50 (U-87 MG): 5.31

SMILES: COc1cccc2c1C(=O)c1c(O)c3c(c(O)c1C2=O)C[C@@](O)(C(=O)CO)C[C@@H]3O[C@H]1C[C@H](N)[C@H](O)[C@H](C)O1 [DOXORUBICIN]
- pIC50 [4]: 6.49
- Ratio IC50 [5]: 8.7
- half-life [1]: 0.0667 h
- pIC50 [6]: 7.43

SMILES: COc1ccc(O)c(C(=O)c2cnc3[nH]c4ccccc4c3c2)c1
- pIC50 (Bel-7402): 6.08
- pIC50 (HeLa): 7.22

SMILES: Cc1cnc(NCCCN(C)C)c2c1[nH]c1ccc3cc(O)ccc3c12 [INTOPLICINE]
- T/C (P388): 270%

SMILES: N[C@@H]1CCN(c2c(F)cc3c(=O)c(C(=O)O)cn4c3c2Oc2c-4ccc3c2ccc2ccccc23)C1
- pIC50 [4]: 6.30
- Ratio IC50 [5]: 1.6
- pIC50 [6]: 6.49

SMILES: N[C@H]1CCN(c2c(F)cc3c(=O)c(C(=O)O)cn4c3c2Oc2c-4ccc3c2ccc2ccccc23)C1
- pIC50 [4]: 5.55
- Ratio IC50 [5]: 4
- pIC50 [6]: 6.16

— ChEMBL document CHEMBL4376825, “Dual Inhibitors of Human DNA Topoisomerase II and Other Cancer-Related Targets” (J Med Chem, 2020)
